Assay results reported in ChEMBL document CHEMBL1201862, “PubChem BioAssay data set” (2004).
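Cells were grown in 96-well plates and exposed to each compound for 48 hours at five concentrations; endpoints were interpolated linearly between bracketing concentrations, or set to the highest concentration if not reached. GI50 is the concentration that inhibits growth by half.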 Activity calls are given as the source filed them. Rule as the data show it: active = GI50 up to about 1.1 µM and inactive = higher.

What was measured:
Experiment in all cases: NCI tumour cell line growth inhibition, 48 h
[1] = tested on: SK-MEL-28
[2] = tested on: UACC-62
[3] = tested on: SNB-19
[4] = tested on: A549
[5] = tested on: COLO 205
[6] = tested on: K562
[7] = tested on: HOP-92
[8] = tested on: UACC-257
[9] = tested on: OVCAR-4
[10] = tested on: HT-29
[11] = tested on: HL-60
[12] = tested on: SK-MEL-5
[13] = tested on: OVCAR-5
[14] = tested on: NCI-H226
[15] = tested on: ACHN
[16] = tested on: SN12C
[17] = tested on: NCI-H23
[18] = tested on: NCI/ADR-RES
[19] = tested on: MCF7
[20] = tested on: MDA-N

SMILES | GI50 [1] | GI50 [2] | GI50 [3] | GI50 [4] | GI50 [5] | GI50 [6] | GI50 [7] | GI50 [8] | GI50 [9] | GI50 [10] | GI50 [11] | GI50 [12] | GI50 [13] | GI50 [14] | GI50 [15] | GI50 [16] | GI50 [17] | GI50 [18] | GI50 [19] | GI50 [20]
CC1(C)CCCC2(C)[C@@H]1CC[C@]13C[C@](C)(CC[C@@H]21)[C@@H]3CO (stereo not given in full) | > 100 µM (inactive) | > 100 µM (inactive) | > 100 µM (inactive) | > 100 µM (inactive) | > 100 µM (inactive) | > 100 µM (inactive) | > 100 µM (inactive) | > 100 µM (inactive) | > 100 µM (inactive) | > 100 µM (inactive) | > 100 µM (inactive) | > 100 µM (inactive) | > 100 µM (inactive) | > 100 µM (inactive) | > 100 µM (inactive) | > 100 µM (inactive) | > 100 µM (inactive) |  |  | 
CS/C(=N\S(=O)(=O)c1ccc(Cl)cc1)NCCN/C(=N/S(=O)(=O)c1ccc(Cl)cc1)SC | > 100 µM (inactive) | > 100 µM (inactive) | 35.7 µM (inactive) |  | > 100 µM (inactive) | > 100 µM (inactive) | 14.2 µM (inactive) | > 100 µM (inactive) | 2.3 µM (inactive) | > 100 µM (inactive) | > 100 µM (inactive) |  | > 100 µM (inactive) |  | > 100 µM (inactive) | > 100 µM (inactive) | 48 µM (inactive) | > 100 µM (inactive) | > 100 µM (inactive) | > 100 µM (inactive)
COc1cc2c3c(n(C)c(=O)c2cc1OC)-c1cc2c(cc1/C3=C/CCCCBr)OCO2 | > 100 µM (inactive) |  | > 100 µM (inactive) | > 100 µM (inactive) | > 100 µM (inactive) | 35.6 µM (inactive) | 57.7 µM (inactive) | > 100 µM (inactive) |  | > 100 µM (inactive) | 30.3 µM (inactive) | 54 µM (inactive) | > 100 µM (inactive) |  | 4.4 µM (inactive) |  | 24.8 µM (inactive) | > 100 µM (inactive) | 4.73 µM (inactive) | > 100 µM (inactive)
O=C(c1ccc(Cl)cc1)N1CCN=C1c1cc2ccccc2c2ccccc12 | 15.5 µM (inactive) | 14.5 µM (inactive) | 16.4 µM (inactive) | 15.9 µM (inactive) | 16 µM (inactive) | 27.7 µM (inactive) | 11.6 µM (inactive) | 17.5 µM (inactive) | 14.2 µM (inactive) | 15.8 µM (inactive) | 21.8 µM (inactive) | 14.8 µM (inactive) | 19.8 µM (inactive) |  | 17.4 µM (inactive) | 16.9 µM (inactive) | 17.6 µM (inactive) | 15.6 µM (inactive) | 17.7 µM (inactive) | 16.4 µM (inactive)
Cc1cc(NCCCCCCCNc2cc(C)nc3cc([N+](=O)[O-])ccc23)c2ccc([N+](=O)[O-])cc2n1 | 4.34 µM (inactive) | 16.6 µM (inactive) | 10.3 µM (inactive) | 3.69 µM (inactive) | 9.23 µM (inactive) | 1.28 µM (inactive) | 16.5 µM (inactive) | 15.1 µM (inactive) | 2 µM (inactive) | 2.53 µM (inactive) | 0.451 µM (active) | 6.43 µM (inactive) | 15.6 µM (inactive) | 18 µM (inactive) | 12.7 µM (inactive) | 4 µM (inactive) | 5.18 µM (inactive) |  |  | 1.78 µM (inactive)
O=C1/C(=C\c2cccc(Oc3ccccc3)c2)SC(c2ccccc2)N1c1cccc([N+](=O)[O-])c1 (stereo not given) | > 100 µM (inactive) | 60.1 µM (inactive) | 65.3 µM (inactive) | > 100 µM (inactive) | > 100 µM (inactive) | 36.6 µM (inactive) | 45.7 µM (inactive) | 97.3 µM (inactive) | 70.3 µM (inactive) | 33.9 µM (inactive) |  | 42.8 µM (inactive) | > 100 µM (inactive) | 87.1 µM (inactive) | > 100 µM (inactive) | > 100 µM (inactive) | > 100 µM (inactive) | 82.8 µM (inactive) | 28.2 µM (inactive) | 33.9 µM (inactive)
COc1cc(Nc2nc3cc(C(F)(F)F)ccc3n3cccc23)cc(OC)c1OC | > 100 µM (inactive) | > 100 µM (inactive) | > 100 µM (inactive) | > 100 µM (inactive) | > 100 µM (inactive) | > 100 µM (inactive) | > 100 µM (inactive) | > 100 µM (inactive) |  |  | 0.762 µM (active) | 26.7 µM (inactive) | > 100 µM (inactive) |  | > 100 µM (inactive) | 32.4 µM (inactive) | > 100 µM (inactive) | 9.4 µM (inactive) | > 100 µM (inactive) | > 100 µM (inactive)
COc1cccc(N/C(C)=C2/CCOC2=O)c1 | > 10 µM (inactive) | > 10 µM (inactive) | > 10 µM (inactive) | > 10 µM (inactive) | > 10 µM (inactive) |  |  |  | > 10 µM (inactive) | > 10 µM (inactive) | > 10 µM (inactive) | > 10 µM (inactive) | > 10 µM (inactive) | > 10 µM (inactive) | 5.33 µM (inactive) | > 10 µM (inactive) | > 10 µM (inactive) | > 10 µM (inactive) | > 10 µM (inactive) | > 10 µM (inactive)
